# Reference: US20240358727A1, “MICROSCALE THERMOPHORESIS TO EVALUATE CHANNEL LIPID INTERACTIONS AND METHODS OF TREATING NAV CHANNELS RELATED DISEASES” (Northeastern University, priority 2023, published 2024)
# Molecular target: T1, Nav1.5 WT (Homo sapiens, UniProt Q14524)
# T1 construct: expressed in transfected cells; host or cells: HEK293T cells, lysed; unpurified lysate supernatant used
# Assay: Microscale thermophoresis (MST) binding of diC8-PIP2 to GFP-tagged wild type Nav1.5 in cell lysate
# Experimental: The method utilizes cell lysates obtained from transfected/infected cells that are lysed and incubated with varying concentrations of a water-soluble analogue of PIP2 commercially available as diC8-PI(4,5)P2, in a 384 well plate. Other phosphoinositides such as diC8PI(4)P of diC8PI(5)P can also be utilized. After a brief incubation (10-30 mins) samples are loaded onto capillary chips purchased from the company Nanotemper. Samples are run on the Nanotemper Monolith instrument. This instrument is advertised to detect green fluorescent protein (GFP) tagged proteins, however we have also used TFP (teal FP) tagged proteins. The instrument provides a short infra-red laser pulse which produces a short thermal gradient. Protein that is interacting with the lipid migrates differently through this thermal gradient and its movement is evaluated by the fluorescence of the GFP/TFP tag on the protein. Based on the concentration of the dic8-phosphoinositide, this resolves into a sigmoidal relationship that delivers an apparent affinity (Kd) value. A test ligand can be added to this assay at a known concentration that is at or close to its Kd for the channel. A shift in the channel's affinity for PIP2 in this assay can help indicate whether this test compound is a good drug candidate for further biological experiments.
# Results. […]
# T1 sequence (Q14524 whole entry): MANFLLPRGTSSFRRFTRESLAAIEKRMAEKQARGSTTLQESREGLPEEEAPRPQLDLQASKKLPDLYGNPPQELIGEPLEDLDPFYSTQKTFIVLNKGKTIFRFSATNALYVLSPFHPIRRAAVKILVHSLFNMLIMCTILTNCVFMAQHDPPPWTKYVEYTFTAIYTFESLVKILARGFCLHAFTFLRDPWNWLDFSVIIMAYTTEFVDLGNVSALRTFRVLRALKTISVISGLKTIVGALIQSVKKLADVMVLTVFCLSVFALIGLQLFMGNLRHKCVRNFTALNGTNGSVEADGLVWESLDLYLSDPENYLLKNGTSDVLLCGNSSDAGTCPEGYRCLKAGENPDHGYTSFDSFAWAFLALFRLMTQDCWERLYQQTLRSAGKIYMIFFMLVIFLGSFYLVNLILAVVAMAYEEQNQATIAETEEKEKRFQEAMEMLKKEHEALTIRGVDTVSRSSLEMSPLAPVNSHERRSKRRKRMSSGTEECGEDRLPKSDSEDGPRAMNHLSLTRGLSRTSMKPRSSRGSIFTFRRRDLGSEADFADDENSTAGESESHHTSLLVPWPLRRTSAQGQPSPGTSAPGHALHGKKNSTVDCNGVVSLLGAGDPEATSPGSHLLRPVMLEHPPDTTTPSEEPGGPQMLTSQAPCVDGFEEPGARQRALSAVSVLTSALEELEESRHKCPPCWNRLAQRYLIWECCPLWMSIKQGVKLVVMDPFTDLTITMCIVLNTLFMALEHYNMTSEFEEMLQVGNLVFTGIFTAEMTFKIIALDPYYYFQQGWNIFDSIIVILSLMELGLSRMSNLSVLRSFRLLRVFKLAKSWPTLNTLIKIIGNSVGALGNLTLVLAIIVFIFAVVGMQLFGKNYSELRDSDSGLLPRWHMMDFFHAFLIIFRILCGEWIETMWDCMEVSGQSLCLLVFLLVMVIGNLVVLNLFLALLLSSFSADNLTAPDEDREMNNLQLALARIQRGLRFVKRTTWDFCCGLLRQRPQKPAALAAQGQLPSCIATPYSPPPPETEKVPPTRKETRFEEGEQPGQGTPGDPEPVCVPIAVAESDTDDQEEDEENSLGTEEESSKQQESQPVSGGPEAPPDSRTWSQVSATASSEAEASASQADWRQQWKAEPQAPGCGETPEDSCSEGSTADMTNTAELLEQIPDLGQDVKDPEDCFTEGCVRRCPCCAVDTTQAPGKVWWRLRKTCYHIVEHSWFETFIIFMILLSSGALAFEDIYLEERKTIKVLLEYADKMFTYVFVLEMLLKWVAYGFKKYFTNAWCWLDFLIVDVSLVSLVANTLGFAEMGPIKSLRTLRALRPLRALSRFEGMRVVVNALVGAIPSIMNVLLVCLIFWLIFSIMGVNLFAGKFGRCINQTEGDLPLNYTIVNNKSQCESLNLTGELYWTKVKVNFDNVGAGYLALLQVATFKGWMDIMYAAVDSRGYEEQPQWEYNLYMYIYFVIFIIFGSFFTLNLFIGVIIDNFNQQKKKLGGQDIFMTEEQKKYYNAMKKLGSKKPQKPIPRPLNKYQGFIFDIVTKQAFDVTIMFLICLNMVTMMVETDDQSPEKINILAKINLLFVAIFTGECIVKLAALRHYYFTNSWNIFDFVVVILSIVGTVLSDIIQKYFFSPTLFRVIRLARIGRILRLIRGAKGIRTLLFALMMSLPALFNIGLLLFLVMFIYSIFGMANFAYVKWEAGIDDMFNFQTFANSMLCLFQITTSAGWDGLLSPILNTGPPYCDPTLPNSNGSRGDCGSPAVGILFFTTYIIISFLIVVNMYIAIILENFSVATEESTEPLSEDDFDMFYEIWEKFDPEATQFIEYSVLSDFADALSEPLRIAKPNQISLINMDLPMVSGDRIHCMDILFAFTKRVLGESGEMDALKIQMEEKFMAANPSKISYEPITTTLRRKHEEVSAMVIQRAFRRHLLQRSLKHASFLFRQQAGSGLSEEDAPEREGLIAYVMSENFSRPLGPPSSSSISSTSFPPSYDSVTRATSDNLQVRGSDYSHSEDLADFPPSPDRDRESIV
compound,measurement,value
CCCCCCCC(=O)OC[C@H](COP(=O)(O)O[C@@H]1[C@H](O)[C@H](O)[C@@H](OP(=O)(O)O)[C@H](OP(=O)(O)O)[C@H]1O)OC(=O)CCCCCCC [diC8-PIP2],Kd,45 ± 10 nM
